In patent publication US20070042959A1, “Thrombin-inhibiting peptides” (priority 1997, published 2007) one finds inhibition of clotting and bleeding on overdosing data, which are given here for one substance.

For data set [1], the system named is blood clotting (human citrate plasma). The data set is described as follows: activated partial thromboplastin time (APTT), action on blood clotting. To be noted: at low concentrations; pre-clinical data, see sample application 1. The format is biochemical. The protocol:
The action of triabin and hirudin on blood clotting was measured by determining the activated partial thromboplastin time (APTT). 100 μl of human citrate plasma, 10 μl of inhibitor (triabin or hirudin) and 100 μl of APTT reagent (pathromtin from the Behring Company) were incubated for 3 minutes at 37° C. After 100 μl of a 25 mmol CaCl2 solution was added, the time until clots formed was measured. The measuring was carried out in a fibrometer of the Sarstedt Company. The results are indicated in an extension of the clotting time, which was measured without adding inhibitor.

For data set [2] the following is noted: clinical studies; easily overdosed; cited from earlier work.

For hirudin, the inhibition of clotting result in data set [1] is on record as “inhibits at low concentrations”. The bleeding on overdosing result in data set [2] is “severe bleeding complications”.
